Reference: article PMC9487510, “A Novel Oral GyrB/ParE Dual Binding Inhibitor Effective against Multidrug-Resistant Neisseria gonorrhoeae and Other High-Threat Pathogens” (Antimicrobial Agents and Chemotherapy, 2022)
Converted amounts (≈) assume the structure as drawn. Like-named read-outs stand apart in the source and are kept apart here.

Test system: N. gonorrhoeae clinical isolates
Assay: MIC, agar dilution (CLSI)
Type: cell-based, Neisseria gonorrhoeae
Conditions: for MIC: read-out: MIC

- MIC range (96 clinical isolates): <0.002 to 0.125 µg/mL
- MIC (Neisseria gonorrhoeae, strain CDC1 (GCREF2012 016)): 0.031 µg/mL (≈ 0.0559 µM)
- MIC (Neisseria gonorrhoeae, strain CDC2 (GCREF2012 045)): 0.031 µg/mL (≈ 0.0559 µM)
- MIC (Neisseria gonorrhoeae, strain CDC3 (GCREF2013 013)): 0.031 µg/mL (≈ 0.0559 µM)
- MIC (Neisseria gonorrhoeae, strain CDC4 (GCREF2013 030)): 0.031 µg/mL (≈ 0.0559 µM)
- MIC (Neisseria gonorrhoeae, strain CDC5 (GCREF2012 001)): 0.063 µg/mL (≈ 0.114 µM)
- MIC (Neisseria gonorrhoeae, strain CDC6 (GCREF2012 002)): 0.063 µg/mL (≈ 0.114 µM)
- MIC (Neisseria gonorrhoeae, strain CDC8 (GCREF2012 004)): 0.016 µg/mL (≈ 0.0289 µM)
- MIC (Neisseria gonorrhoeae, strain CDC9 (GCREF2012 005)): 0.031 µg/mL (≈ 0.0559 µM)
- MIC (Neisseria gonorrhoeae, strain CDC10 (GCREF2012 006)): 0.031 µg/mL (≈ 0.0559 µM)
- MIC (Neisseria gonorrhoeae, strain CDC11 (GCREF2012 007)): 0.031 µg/mL (≈ 0.0559 µM)
- MIC (Neisseria gonorrhoeae, strain CDC12 (GCREF2012 008)): 0.031 µg/mL (≈ 0.0559 µM)
- MIC (Neisseria gonorrhoeae, strain CDC13 (GCREF2012 009)): 0.031 µg/mL (≈ 0.0559 µM)
- MIC (Neisseria gonorrhoeae, strain CDC14 (GCREF2012 010)): 0.031 µg/mL (≈ 0.0559 µM)
- MIC (Neisseria gonorrhoeae, strain CDC15 (GCREF2012 011)): 0.008 µg/mL (≈ 0.0144 µM)
- MIC (Neisseria gonorrhoeae, strain CDC16 (GCREF2012 012)): 0.063 µg/mL (≈ 0.114 µM)
- MIC (Neisseria gonorrhoeae, strain CDC18 (GCREF2012 014)): 0.063 µg/mL (≈ 0.114 µM)
- MIC (Neisseria gonorrhoeae, strain CDC19 (GCREF2012 015)): 0.008 µg/mL (≈ 0.0144 µM)
- MIC (Neisseria gonorrhoeae, strain CDC20 (GCREF2012 017)): 0.063 µg/mL (≈ 0.114 µM)
- MIC (Neisseria gonorrhoeae, strain CDC21 (GCREF2012 018)): 0.031 µg/mL (≈ 0.0559 µM)
- MIC (Neisseria gonorrhoeae, strain CDC22 (GCREF2012 019)): 0.008 µg/mL (≈ 0.0144 µM)
- MIC (Neisseria gonorrhoeae, strain CDC23 (GCREF2012 020)): 0.031 µg/mL (≈ 0.0559 µM)
- MIC (Neisseria gonorrhoeae, strain CDC24 (GCREF2012 021)): 0.063 µg/mL (≈ 0.114 µM)
- MIC (Neisseria gonorrhoeae, strain CDC25 (GCREF2012 022)): 0.031 µg/mL (≈ 0.0559 µM)
- MIC (Neisseria gonorrhoeae, strain CDC26 (GCREF2012 023)): 0.031 µg/mL (≈ 0.0559 µM)
- MIC (Neisseria gonorrhoeae, strain CDC27 (GCREF2012 024)): 0.031 µg/mL (≈ 0.0559 µM)
- MIC (Neisseria gonorrhoeae, strain CDC28 (GCREF2012 025)): 0.031 µg/mL (≈ 0.0559 µM)
- MIC (Neisseria gonorrhoeae, strain CDC29 (GCREF2012 026)): 0.016 µg/mL (≈ 0.0289 µM)
- MIC (Neisseria gonorrhoeae, strain CDC30 (GCREF2012 027)): 0.031 µg/mL (≈ 0.0559 µM)
- MIC (Neisseria gonorrhoeae, strain CDC31 (GCREF2012 028)): 0.031 µg/mL (≈ 0.0559 µM)
- MIC (Neisseria gonorrhoeae, strain CDC32 (GCREF2012 029)): 0.063 µg/mL (≈ 0.114 µM)
- MIC (Neisseria gonorrhoeae, strain CDC33 (GCREF2012 030)): 0.125 µg/mL (≈ 0.225 µM)
- MIC (Neisseria gonorrhoeae, strain CDC34 (GCREF2012 031)): 0.125 µg/mL (≈ 0.225 µM)
- MIC (Neisseria gonorrhoeae, strain CDC35 (GCREF2012 032)): 0.125 µg/mL (≈ 0.225 µM)
- MIC (Neisseria gonorrhoeae, strain CDC36 (GCREF2012 033)): 0.031 µg/mL (≈ 0.0559 µM)
- MIC (Neisseria gonorrhoeae, strain CDC37 (GCREF2012 034)): 0.031 µg/mL (≈ 0.0559 µM)
- MIC (Neisseria gonorrhoeae, strain CDC38 (GCREF2012 035)): 0.031 µg/mL (≈ 0.0559 µM)
- MIC (Neisseria gonorrhoeae, strain CDC39 (GCREF2012 036)): 0.031 µg/mL (≈ 0.0559 µM)
- MIC (Neisseria gonorrhoeae, strain CDC40 (GCREF2012 037)): 0.031 µg/mL (≈ 0.0559 µM)
- MIC (Neisseria gonorrhoeae, strain CDC41 (GCREF2012 038)): 0.031 µg/mL (≈ 0.0559 µM)
- MIC (Neisseria gonorrhoeae, strain CDC42 (GCREF2012 039)): 0.031 µg/mL (≈ 0.0559 µM)
- MIC (Neisseria gonorrhoeae, strain CDC43 (GCREF2012 040)): 0.031 µg/mL (≈ 0.0559 µM)
- MIC (Neisseria gonorrhoeae, strain CDC45 (GCREF2012 042)): 0.125 µg/mL (≈ 0.225 µM)
- MIC (Neisseria gonorrhoeae, strain CDC46 (GCREF2012 043)): 0.031 µg/mL (≈ 0.0559 µM)
- MIC (Neisseria gonorrhoeae, strain CDC47 (GCREF2012 044)): 0.031 µg/mL (≈ 0.0559 µM)
- MIC (Neisseria gonorrhoeae, strain CDC48 (GCREF2012 046)): 0.031 µg/mL (≈ 0.0559 µM)
- MIC (Neisseria gonorrhoeae, strain CDC49 (GCREF2012 047)): 0.031 µg/mL (≈ 0.0559 µM)
- MIC (Neisseria gonorrhoeae, strain CDC50 (GCREF2012 048)): 0.063 µg/mL (≈ 0.114 µM)
- MIC (Neisseria gonorrhoeae, strain CDC51 (GCREF2012 049)): 0.008 µg/mL (≈ 0.0144 µM)
- MIC (Neisseria gonorrhoeae, strain CDC52 (GCREF2012 050)): 0.008 µg/mL (≈ 0.0144 µM)
- MIC (Neisseria gonorrhoeae, strain CDC53 (GCREF2012 051)): 0.004 µg/mL (≈ 0.00721 µM)
- MIC (Neisseria gonorrhoeae, strain CDC54 (GCREF2012 052)): 0.004 µg/mL (≈ 0.00721 µM)
- MIC (Neisseria gonorrhoeae, strain CDC55 (GCREF2013 001)): 0.031 µg/mL (≈ 0.0559 µM)
- MIC (Neisseria gonorrhoeae, strain CDC56 (GCREF2013 002)): 0.016 µg/mL (≈ 0.0289 µM)
- MIC (Neisseria gonorrhoeae, strain CDC57 (GCREF2013 003)): 0.004 µg/mL (≈ 0.00721 µM)
- MIC (Neisseria gonorrhoeae, strain CDC58 (GCREF2013 004)): 0.004 µg/mL (≈ 0.00721 µM)
- MIC (Neisseria gonorrhoeae, strain CDC59 (GCREF2013 044)): 0.004 µg/mL (≈ 0.00721 µM)
- MIC (Neisseria gonorrhoeae, strain CDC60 (GCREF2013 005)): 0.031 µg/mL (≈ 0.0559 µM)
- MIC (Neisseria gonorrhoeae, strain CDC61 (GCREF2013 006)): 0.031 µg/mL (≈ 0.0559 µM)
- MIC (Neisseria gonorrhoeae, strain CDC62 (GCREF2013 007)): 0.008 µg/mL (≈ 0.0144 µM)
- MIC (Neisseria gonorrhoeae, strain CDC64 (GCREF2013 009)): 0.008 µg/mL (≈ 0.0144 µM)
- MIC (Neisseria gonorrhoeae, strain CDC65 (GCREF2013 010)): 0.016 µg/mL (≈ 0.0289 µM)
- MIC (Neisseria gonorrhoeae, strain CDC66 (GCREF2013 011)): 0.008 µg/mL (≈ 0.0144 µM)
- MIC (Neisseria gonorrhoeae, strain CDC67 (GCREF2013 014)): 0.008 µg/mL (≈ 0.0144 µM)
- MIC (Neisseria gonorrhoeae, strain CDC68 (GCREF2013 016)): 0.016 µg/mL (≈ 0.0289 µM)
- MIC (Neisseria gonorrhoeae, strain CDC69 (GCREF2013 017)): 0.031 µg/mL (≈ 0.0559 µM)
- MIC (Neisseria gonorrhoeae, strain CDC70 (GCREF2013 018)): 0.004 µg/mL (≈ 0.00721 µM)
- MIC (Neisseria gonorrhoeae, strain CDC71 (GCREF2013 019)): 0.008 µg/mL (≈ 0.0144 µM)
- MIC (Neisseria gonorrhoeae, strain CDC72 (GCREF2013 020)): 0.031 µg/mL (≈ 0.0559 µM)
- MIC (Neisseria gonorrhoeae, strain CDC73 (GCREF2013 021)): 0.008 µg/mL (≈ 0.0144 µM)
- MIC (Neisseria gonorrhoeae, strain CDC74 (GCREF2013 022)): 0.008 µg/mL (≈ 0.0144 µM)
- MIC (Neisseria gonorrhoeae, strain CDC75 (GCREF2013 023)): 0.016 µg/mL (≈ 0.0289 µM)
- MIC (Neisseria gonorrhoeae, strain CDC76 (GCREF2013 024)): 0.016 µg/mL (≈ 0.0289 µM)
- MIC (Neisseria gonorrhoeae, strain CDC77 (GCREF2013 025)): 0.008 µg/mL (≈ 0.0144 µM)
- MIC (Neisseria gonorrhoeae, strain CDC78 (GCREF2013 026)): 0.016 µg/mL (≈ 0.0289 µM)
- MIC (Neisseria gonorrhoeae, strain CDC79 (GCREF2013 027)): 0.016 µg/mL (≈ 0.0289 µM)
- MIC (Neisseria gonorrhoeae, strain CDC80 (GCREF2013 028)): 0.008 µg/mL (≈ 0.0144 µM)
- MIC (Neisseria gonorrhoeae, strain CDC81 (GCREF2013 029)): 0.031 µg/mL (≈ 0.0559 µM)
- MIC (Neisseria gonorrhoeae, strain CDC82 (GCREF2013 031)): 0.031 µg/mL (≈ 0.0559 µM)
- MIC (Neisseria gonorrhoeae, strain CDC83 (GCREF2013 032)): 0.008 µg/mL (≈ 0.0144 µM)
- MIC (Neisseria gonorrhoeae, strain CDC84 (GCREF2013 033)): 0.008 µg/mL (≈ 0.0144 µM)
- MIC (Neisseria gonorrhoeae, strain CDC86 (GCREF2013 035)): 0.008 µg/mL (≈ 0.0144 µM)
- MIC (Neisseria gonorrhoeae, strain CDC87 (GCREF2013 036)): 0.063 µg/mL (≈ 0.114 µM)
- MIC (Neisseria gonorrhoeae, strain CDC88 (GCREF2013 037)): 0.031 µg/mL (≈ 0.0559 µM)
- MIC (Neisseria gonorrhoeae, strain CDC89 (GCREF2013 038)): 0.008 µg/mL (≈ 0.0144 µM)
- MIC (Neisseria gonorrhoeae, strain CDC90 (GCREF2013 039)): 0.031 µg/mL (≈ 0.0559 µM)
- MIC (Neisseria gonorrhoeae, strain CDC91 (GCREF2013 040)): 0.125 µg/mL (≈ 0.225 µM)
- MIC (Neisseria gonorrhoeae, strain CDC92 (GCREF2013 041)): 0.031 µg/mL (≈ 0.0559 µM)
- MIC (Neisseria gonorrhoeae, strain CDC93 (GCREF2013 042)): 0.016 µg/mL (≈ 0.0289 µM)
- MIC (Neisseria gonorrhoeae, strain CDC94 (GCREF2013 043)): 0.008 µg/mL (≈ 0.0144 µM)
- MIC (Neisseria gonorrhoeae, strain CDC95 (GCREF2013 045)): 0.031 µg/mL (≈ 0.0559 µM)
- MIC (Neisseria gonorrhoeae, strain CDC96 (GCREF2013 046)): 0.016 µg/mL (≈ 0.0289 µM)
- MIC (Neisseria gonorrhoeae, strain CDC97 (GCREF2013 047)): 0.031 µg/mL (≈ 0.0559 µM)
- MIC (Neisseria gonorrhoeae, strain CDC98 (GCREF2013 048)): 0.008 µg/mL (≈ 0.0144 µM)
- MIC (Neisseria gonorrhoeae, strain CDC99 (GCREF2013 012)): 0.008 µg/mL (≈ 0.0144 µM)
- MIC (Neisseria gonorrhoeae, strain CDC100 (GCREF2013 015)): 0.031 µg/mL (≈ 0.0559 µM)
- MIC50 (Neisseria gonorrhoeae, 96 clinical isolates, read-out: MIC50): 0.031 µg/mL (≈ 0.0559 µM)
- MIC90 (Neisseria gonorrhoeae, 96 clinical isolates, read-out: MIC90): 0.063 µg/mL (≈ 0.114 µM)
Structure (SMILES): CO/N=C(\C(=O)N[C@@H]1C(=O)N2C(C(=O)O)=C(CSc3nc(=O)c(=O)[nH]n3C)CS[C@H]12)c1csc(N)n1 [Cro, ceftriaxone]
